# Paper PMC11864979, “First-in-class ultralong-target-residence-time p38α inhibitors as a mitosis-targeted therapy for colorectal cancer” (Nature Cancer, 2025)
# “And” between values parts separate entries of the source, which are not always exact repeats. Equal values may be shown once. Read-outs that look alike come from different tables or passages of the source.
# What was measured:
# PDO11 = assay: cell viability in patient-derived CRC organoids PDO11; type: cell-based, human; details: PDO11, 1 µM, 4 days; 1 µM
# Experimental: (§1) For in vitro treatment studies, organoids were mechanically dissociated and digested using TrypLE supplemented with 100 µg ml^−1 DNaseI and 10.5 µM Y-27632 dihydrochloride (Invitrogen) at 37 °C. A total of 1,000–2,000 single cells were plated per well in white 96-well plates (Greiner) in culture medium containing 10% GFR Matrigel or Cultrex BME. The treatment with doxycycline (5 µg ml^−1), pharmacological inhibitors or corresponding volumes of DMSO was started 24 h after plating. Doxycycline was obtained from Sigma-Aldrich. […] Cell viability was measured by means of CellTiter-Glo 3D or CellTiter-Glo 2.0 reagent (Promega) according to the manufacturers’ instructions and the Infinite M Plex reader (Tecan, i-control version 3.9.1 software). Results were normalized to vehicle (DMSO) or to shNC. For cell-doubling assays, the cell number was quantified at the corresponding time points using Guava EasyCyte flow cytometer (Luminex, CytoSoft v5.2 software).
# HT-29 = assay: cell viability in human CRC cell line HT-29; type: cell-based; details: for HT-29 Cell viability (%) / viability at 0.0137 µM / viability at 0.0412 µM / viability at 0.1235 µM / viability at 0.3704 µM / viability at 1.1111 µM / viability at 3.3333 µM / viability at 10 µM: ED Fig. 9h, replicates; for viability at 0.0137 µM: HT-29, 0.0137 µM; for viability at 0.0137 µM / viability at 0.0412 µM / viability at 0.1235 µM / viability at 0.3704 µM / viability at 1.1111 µM / viability at 3.3333 µM / viability at 10 µM: read-out: HT-29 Cell viability (%); for viability at 0.0412 µM: HT-29, 0.0412 µM; for viability at 0.1235 µM: HT-29, 0.1235 µM; for viability at 0.3704 µM: HT-29, 0.3704 µM; for viability at 1.1111 µM: HT-29, 1.1111 µM; for viability at 3.3333 µM: HT-29, 3.3333 µM; for viability at 10 µM: HT-29, 10.0000 µM
# Experimental: To generate KAP^2D cells, KAP organoids were isolated from Matrigel, fragmented by mechanical dissociation and plated without any extracellular matrix on common cell culture dishes. Phoenix-Eco packaging cells (CRL-3214), HCT-15 (CCL-225), HCT 116 (CCL-247), COLO 205 (CCL-222), LS 174T (CL-188), RKO (CRL-2577) and HT-29 (HTB-38) were obtained from the American Type Culture Collection. The cells were cultured at 37 °C and 7% CO2 with RPMI (KAP^2D cells) or DMEM (other cell lines), supplemented with 10% FBS and penicillin–streptomycin. KAP^2D cells were authenticated using PCR (Kras locus and Trp53 locus). Phoenix-Eco packaging cells and HCT-15, HCT 116, COLO 205, LS 174T, RKO and HT-29 cells were authenticated by the provider using short tandem repeat profiling. No commonly misidentified cell lines were used. Mycoplasma contamination was excluded by a PCR-based analysis.
# as §1
# KAP organoids = assay: cell viability in KAP organoids (CellTiter-Glo); type: cell-based, mouse; details: for viability at 1 µM: Mus musculus
# Experimental: as §1
# PDO8 = assay: cell viability in patient-derived CRC organoids PDO8; type: cell-based, human
# Experimental: as §1
compound,measurement,setting,value
CNC(=O)c1ccc2c(c1)C(=O)c1ccc(Nc3ccc(F)c(NC(=O)C4CC4)c3)cc1CC2 [Compound 2015],Cell viability (%),PDO11,16.83% and 13.26%
same,HT-29 Cell viability (%),"HT-29; 0.0137 µM, Repetition",96.89% and 103.43%
same,HT-29 Cell viability (%),"HT-29; 0.0137 µM, first experiment",95.39% and 93.39%
same,HT-29 Cell viability (%),"HT-29; 0.0412 µM, Repetition",87.26% and 92.22%
same,HT-29 Cell viability (%),"HT-29; 0.0412 µM, first experiment",90.94% and 92.11%
same,HT-29 Cell viability (%),"HT-29; 0.1235 µM, Repetition",78.51% and 65.92%
same,HT-29 Cell viability (%),"HT-29; 0.1235 µM, first experiment",82.62% and 81.99%
same,HT-29 Cell viability (%),"HT-29; 0.3704 µM, Repetition",32.88% and 34.27%
same,HT-29 Cell viability (%),"HT-29; 0.3704 µM, first experiment",11.40% and 11.69%
same,HT-29 Cell viability (%),"HT-29; 1.1111 µM, Repetition",7.40% and 7.23%
same,HT-29 Cell viability (%),"HT-29; 1.1111 µM, first experiment",7.18% and 7.44%
same,HT-29 Cell viability (%),"HT-29; 3.3333 µM, Repetition",7.01% and 6.31%
same,HT-29 Cell viability (%),"HT-29; 3.3333 µM, first experiment",10.00% and 9.86%
same,HT-29 Cell viability (%),"HT-29; 10.0000 µM, Repetition",6.48% and 6.38%
same,HT-29 Cell viability (%),"HT-29; 10.0000 µM, first experiment",9.39% and 10.22%
same,IC50,"HT-29; Homo sapiens, 96 h, HT-29, 4 d of treatment",178 nM
same,viability at 0.0137 µM,"HT-29; Homo sapiens, Repetition",99.5%
same,viability at 0.0137 µM,"HT-29; Homo sapiens, first experiment",93.3%
same,viability at 0.0412 µM,"HT-29; Homo sapiens, Repetition",82.5%
same,viability at 0.0412 µM,"HT-29; Homo sapiens, first experiment",89.4%
same,viability at 0.1235 µM,"HT-29; Homo sapiens, Repetition",73%
same,viability at 0.1235 µM,"HT-29; Homo sapiens, first experiment",79.7%
same,viability at 0.3704 µM,"HT-29; Homo sapiens, Repetition",33.4%
same,viability at 0.3704 µM,"HT-29; Homo sapiens, first experiment",12.1%
same,viability at 1.1111 µM,"HT-29; Homo sapiens, Repetition",7.21%
same,viability at 1.1111 µM,"HT-29; Homo sapiens, first experiment",7.57%
same,viability at 3.3333 µM,"HT-29; Homo sapiens, Repetition",6.86%
same,viability at 3.3333 µM,"HT-29; Homo sapiens, first experiment",10.2%
same,viability at 10 µM,"HT-29; Homo sapiens, Repetition",6.64%
same,viability at 10 µM,"HT-29; Homo sapiens, first experiment",9.63%
same,Cell viability (%),"KAP organoids; Fig. 2b, compound screen, replicates",20.98% and 10.41% and 17.65%
same,Cell viability (%),"KAP organoids; Fig. 2f, 0,5 µM, replicates, 5 µM",20.49% and 19.41%
same,Cell viability (%),"KAP organoids; Fig. 2f, 0,25 µM, replicates, 25 µM",76.91% and 71.00%
same,Cell viability (%),"KAP organoids; Fig. 2f, 1 µM, replicates",22.79% and 21.48%
same,viability at 1 µM,"KAP organoids; Fig. 2f, 1 µM, replicates, read-out: Cell viability (%)",22.2%
same,viability at 1 µM,"KAP organoids; drug screen in KAP organoids, 1 µM concentration, n = 3, mean, read-out: Cell viability (% of DMSO)",16.4%
same,induction of cell death in KAP organoids (in words),KAP organoids; viability assay,increased cell death induction
same,viability at 1 µM,"PDO8; Homo sapiens, 96 h, PDO8, 1 µM, 4 days",47.8%
same,Cell viability (%),"PDO8; PDO8, 0.5 µM, 4 d, 0.5 µM",62.35% and 47.16% and 31.30%
same,Cell viability (%),"PDO8; PDO8, 1 µM, 4 days, 1 µM",40.47% and 33.30%
